Measured values taken from ChEMBL document CHEMBL1201862, “PubChem BioAssay data set” (2004).
Active and inactive are the calls of the source.

Columns and labels:
Troponin, cardiac muscle = Troponin, cardiac muscle (Homo sapiens, UniProt P19429+P45379+P63316); experiment: Fluorescence-based biochemical high throughput dose response assay for activators of the calcium sensitivity of cardiac Regulated Thin Filaments (RTF). [Related pubchem assays (depositor defined):AID493008, AID493018, AID504382, AID504383]; assay type: protein-complex assay
Keap1/Nrf2 = Keap1/Nrf2 (Homo sapiens, UniProt Q14145); experiment: Keap1-Nrf2 protein-protein interaction inhibitors, dose response, biochemical, fluorescence polarization, cherry-picked samples (AID 588683)
Chain of Keap1/Nrf2 (Q16236 whole entry): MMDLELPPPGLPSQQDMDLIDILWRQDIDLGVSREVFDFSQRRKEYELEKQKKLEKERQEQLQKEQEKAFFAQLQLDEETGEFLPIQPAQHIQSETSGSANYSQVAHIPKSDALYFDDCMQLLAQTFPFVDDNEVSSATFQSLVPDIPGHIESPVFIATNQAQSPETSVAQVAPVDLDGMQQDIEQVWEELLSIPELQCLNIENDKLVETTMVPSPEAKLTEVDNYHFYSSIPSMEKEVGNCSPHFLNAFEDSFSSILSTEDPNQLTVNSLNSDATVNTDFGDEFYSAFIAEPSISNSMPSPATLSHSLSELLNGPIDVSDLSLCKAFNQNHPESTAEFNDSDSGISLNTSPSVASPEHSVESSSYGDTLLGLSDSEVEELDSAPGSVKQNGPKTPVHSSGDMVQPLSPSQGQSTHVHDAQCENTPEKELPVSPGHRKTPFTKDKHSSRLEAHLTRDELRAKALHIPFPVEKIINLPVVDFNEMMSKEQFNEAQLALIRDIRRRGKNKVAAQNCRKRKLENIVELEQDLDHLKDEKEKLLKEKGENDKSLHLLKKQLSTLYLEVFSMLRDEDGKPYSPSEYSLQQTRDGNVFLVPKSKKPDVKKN
Chain of Keap1/Nrf2 (Q14145 whole entry): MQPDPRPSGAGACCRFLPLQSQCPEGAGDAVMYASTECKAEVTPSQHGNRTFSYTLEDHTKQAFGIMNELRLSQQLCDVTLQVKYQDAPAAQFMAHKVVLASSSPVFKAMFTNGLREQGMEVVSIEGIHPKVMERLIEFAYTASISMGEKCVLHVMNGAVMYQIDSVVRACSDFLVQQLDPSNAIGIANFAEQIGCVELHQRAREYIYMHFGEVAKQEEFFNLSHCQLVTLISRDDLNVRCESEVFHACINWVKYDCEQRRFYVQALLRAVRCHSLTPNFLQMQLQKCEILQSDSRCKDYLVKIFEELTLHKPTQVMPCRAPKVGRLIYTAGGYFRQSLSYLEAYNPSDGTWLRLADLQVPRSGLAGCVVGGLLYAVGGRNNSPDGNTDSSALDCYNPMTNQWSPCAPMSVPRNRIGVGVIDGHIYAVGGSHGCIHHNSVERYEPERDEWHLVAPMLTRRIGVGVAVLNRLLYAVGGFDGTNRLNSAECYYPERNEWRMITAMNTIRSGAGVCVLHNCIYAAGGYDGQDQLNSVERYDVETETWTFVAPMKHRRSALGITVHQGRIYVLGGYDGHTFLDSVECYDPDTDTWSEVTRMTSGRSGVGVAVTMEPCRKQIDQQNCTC

Cytochrome P450 2D6 = Cytochrome P450 2D6 (Homo sapiens, UniProt P10635);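 further: CYP2D6 member of a cytochrome P450 panel assay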
Chain of Cytochrome P450 2D6 (P10635 whole entry): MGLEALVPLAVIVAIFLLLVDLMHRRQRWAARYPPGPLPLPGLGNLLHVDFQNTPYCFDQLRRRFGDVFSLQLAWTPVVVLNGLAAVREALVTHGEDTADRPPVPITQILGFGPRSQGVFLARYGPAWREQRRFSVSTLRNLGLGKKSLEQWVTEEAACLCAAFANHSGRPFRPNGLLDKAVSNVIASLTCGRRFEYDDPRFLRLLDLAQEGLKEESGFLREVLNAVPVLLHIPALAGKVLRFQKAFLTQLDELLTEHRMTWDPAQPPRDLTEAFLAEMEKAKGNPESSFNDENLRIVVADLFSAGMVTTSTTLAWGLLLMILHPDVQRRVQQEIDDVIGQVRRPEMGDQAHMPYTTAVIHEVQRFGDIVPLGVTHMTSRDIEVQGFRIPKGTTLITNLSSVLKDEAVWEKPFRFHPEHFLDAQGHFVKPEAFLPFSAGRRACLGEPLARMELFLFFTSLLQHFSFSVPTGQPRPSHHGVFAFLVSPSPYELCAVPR

Cytochrome P450 1A2 [1] = biological target: T1, Cytochrome P450 1A2 (Homo sapiens, UniProt P05177);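 further: PubChem cytochrome P450 panel assay, CYP1A2 panel member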
T1 sequence (P05177 whole entry): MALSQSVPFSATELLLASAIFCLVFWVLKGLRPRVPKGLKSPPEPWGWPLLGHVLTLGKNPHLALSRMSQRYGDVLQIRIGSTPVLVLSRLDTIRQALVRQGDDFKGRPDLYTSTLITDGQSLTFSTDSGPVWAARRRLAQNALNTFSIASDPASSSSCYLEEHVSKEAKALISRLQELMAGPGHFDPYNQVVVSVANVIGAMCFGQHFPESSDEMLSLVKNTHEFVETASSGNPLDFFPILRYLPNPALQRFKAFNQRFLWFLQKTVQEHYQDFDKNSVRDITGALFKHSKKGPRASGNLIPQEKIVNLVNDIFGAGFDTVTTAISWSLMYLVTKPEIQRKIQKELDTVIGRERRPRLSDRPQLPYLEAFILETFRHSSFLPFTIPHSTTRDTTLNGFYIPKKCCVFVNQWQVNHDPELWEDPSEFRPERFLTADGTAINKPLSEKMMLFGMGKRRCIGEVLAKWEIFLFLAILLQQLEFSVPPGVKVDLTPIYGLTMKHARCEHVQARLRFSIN

Hexokinase-1 = Hexokinase-1 (Homo sapiens, UniProt P19367); experiment: SAR analysis of small molecule inhibitors of hexokinase domain containing I (HKDC1) in the hexokinase 1 selectivity assay. [Related pubchem assays (depositor defined):AID493160, AID493190]; assay type: functional
Chain of Hexokinase-1 (P19367 whole entry, the tested form may be a part): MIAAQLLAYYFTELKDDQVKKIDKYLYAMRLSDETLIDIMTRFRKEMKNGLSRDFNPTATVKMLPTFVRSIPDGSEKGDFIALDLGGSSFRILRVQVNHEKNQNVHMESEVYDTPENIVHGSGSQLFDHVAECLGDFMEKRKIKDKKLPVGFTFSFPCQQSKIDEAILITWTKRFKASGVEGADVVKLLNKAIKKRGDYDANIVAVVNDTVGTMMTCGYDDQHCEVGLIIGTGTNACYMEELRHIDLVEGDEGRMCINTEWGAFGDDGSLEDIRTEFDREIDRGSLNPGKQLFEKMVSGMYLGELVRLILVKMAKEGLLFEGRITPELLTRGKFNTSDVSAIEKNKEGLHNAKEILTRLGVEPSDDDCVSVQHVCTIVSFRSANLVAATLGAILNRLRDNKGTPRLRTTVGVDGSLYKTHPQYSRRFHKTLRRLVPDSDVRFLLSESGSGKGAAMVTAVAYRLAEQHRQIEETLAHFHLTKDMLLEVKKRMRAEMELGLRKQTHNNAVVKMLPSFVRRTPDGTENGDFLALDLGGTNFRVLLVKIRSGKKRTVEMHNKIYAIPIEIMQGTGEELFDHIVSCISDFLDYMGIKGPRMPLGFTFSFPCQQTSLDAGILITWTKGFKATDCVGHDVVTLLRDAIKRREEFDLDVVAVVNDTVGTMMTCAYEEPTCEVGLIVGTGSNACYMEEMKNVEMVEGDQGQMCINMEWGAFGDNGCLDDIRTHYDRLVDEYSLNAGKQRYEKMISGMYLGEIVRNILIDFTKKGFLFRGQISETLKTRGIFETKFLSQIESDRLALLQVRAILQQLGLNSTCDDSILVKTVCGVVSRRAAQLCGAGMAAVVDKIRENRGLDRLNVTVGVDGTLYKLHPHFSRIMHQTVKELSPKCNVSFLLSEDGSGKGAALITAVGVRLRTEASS

Hexokinase HKDC1 = biological target: T2, Hexokinase HKDC1 (Homo sapiens, UniProt Q2TB90); experiment: SAR analysis of small molecule inhibitors of hexokinase domain containing I (HKDC1). [Related pubchem assays (depositor defined):AID493160, AID493190]; assay type: functional
T2 sequence (Q2TB90 whole entry): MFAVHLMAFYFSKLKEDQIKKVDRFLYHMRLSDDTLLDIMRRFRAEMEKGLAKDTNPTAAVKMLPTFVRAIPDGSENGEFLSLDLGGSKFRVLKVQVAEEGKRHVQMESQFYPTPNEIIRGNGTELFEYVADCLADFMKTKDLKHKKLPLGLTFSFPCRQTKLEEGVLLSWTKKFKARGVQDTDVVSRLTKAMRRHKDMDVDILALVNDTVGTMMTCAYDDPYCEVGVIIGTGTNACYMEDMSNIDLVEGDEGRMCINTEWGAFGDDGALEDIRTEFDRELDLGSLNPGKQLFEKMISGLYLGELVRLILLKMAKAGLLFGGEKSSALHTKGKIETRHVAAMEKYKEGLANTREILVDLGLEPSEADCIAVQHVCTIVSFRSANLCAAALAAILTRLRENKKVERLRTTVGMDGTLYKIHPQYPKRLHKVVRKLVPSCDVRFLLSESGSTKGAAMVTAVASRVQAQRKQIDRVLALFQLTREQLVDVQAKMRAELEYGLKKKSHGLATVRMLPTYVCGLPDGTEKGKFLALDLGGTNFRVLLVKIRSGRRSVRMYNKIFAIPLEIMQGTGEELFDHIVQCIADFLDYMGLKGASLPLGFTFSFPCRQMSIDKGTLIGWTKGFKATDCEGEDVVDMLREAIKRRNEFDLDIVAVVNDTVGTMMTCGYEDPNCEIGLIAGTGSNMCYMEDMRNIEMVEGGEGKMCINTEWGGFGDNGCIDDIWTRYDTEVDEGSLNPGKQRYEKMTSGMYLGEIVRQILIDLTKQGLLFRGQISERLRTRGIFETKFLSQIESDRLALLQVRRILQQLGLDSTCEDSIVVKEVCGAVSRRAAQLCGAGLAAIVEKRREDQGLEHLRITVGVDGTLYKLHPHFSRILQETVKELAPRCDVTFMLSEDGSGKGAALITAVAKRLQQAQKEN

[2] = C. albicans growth with fluconazole, confirmation, fluorescence, retest (AID 2467); assay type: functional, cell-based
[3] = biological target: Serine/threonine-protein phosphatase (Candida dubliniensis (strain CD36 / CBS 7987 / NCPF 3949 / NRRLY-17841) (Yeast), UniProt B9W6M3); experiment: calcineurin pathway inhibitors in yeast reporter, dose response, S. cerevisiae, CDRE-lacZ, luminescence, secondary (AID 2388); assay type: functional, cell-based;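 further: yeast reporter cells carrying a calcineurin-responsive lacZ construct stimulated with calcium chloride; luminescent beta-galactosidase reporter signal in whole cells rather than isolated phosphatase activity; potency for inhibition where a drop in reporter signal means calcineurin blockade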
Chain of Serine/threonine-protein phosphatase (B9W6M3 whole entry): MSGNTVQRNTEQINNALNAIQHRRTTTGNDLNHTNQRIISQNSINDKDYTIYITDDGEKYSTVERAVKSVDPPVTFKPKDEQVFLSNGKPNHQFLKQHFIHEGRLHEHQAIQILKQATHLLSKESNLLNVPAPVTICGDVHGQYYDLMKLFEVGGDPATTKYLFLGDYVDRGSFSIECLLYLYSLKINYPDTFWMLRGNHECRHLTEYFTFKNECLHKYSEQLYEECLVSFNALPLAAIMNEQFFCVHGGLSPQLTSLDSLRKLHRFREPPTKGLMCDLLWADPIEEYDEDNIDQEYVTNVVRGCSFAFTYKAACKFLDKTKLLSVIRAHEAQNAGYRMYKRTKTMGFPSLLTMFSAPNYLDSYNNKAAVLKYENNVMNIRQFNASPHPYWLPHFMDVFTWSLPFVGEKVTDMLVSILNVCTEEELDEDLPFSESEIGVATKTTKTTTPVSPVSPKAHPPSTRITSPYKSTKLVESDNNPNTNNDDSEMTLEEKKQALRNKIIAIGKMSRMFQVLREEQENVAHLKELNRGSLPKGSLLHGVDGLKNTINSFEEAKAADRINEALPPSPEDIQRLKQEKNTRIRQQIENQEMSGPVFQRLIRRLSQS

[4] = NIH-3T3 fibroblast cytotoxicity, dose response, cytotoxicity control, cell-based, fluorescence, Alamar Blue, secondary assay (AID 2327); assay type: functional;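 further: NIH-3T3 mouse fibroblasts cultured with fluconazole at 8 µg/mL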
[5] = biological target: ATP-dependent molecular chaperone HSP82 (Candida albicans (strain WO-1) (Yeast), UniProt C4YTQ8); experiment: loss of DOC-induced GRE-beta-galactosidase reporter signal, dose response, Hsp90 inhibitor project, S. cerevisiae, luminescence (AID 2400); assay type: functional, cell-based;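 further: beta-galactosidase luminescence from glucocorticoid response element reporter as proxy for Hsp90 function; inhibitor potency where signal loss means Hsp90 inhibition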
Cytochrome P450 2C9 = Cytochrome P450 2C9 (Homo sapiens, UniProt P11712)
Chain of Cytochrome P450 2C9 (P11712 whole entry): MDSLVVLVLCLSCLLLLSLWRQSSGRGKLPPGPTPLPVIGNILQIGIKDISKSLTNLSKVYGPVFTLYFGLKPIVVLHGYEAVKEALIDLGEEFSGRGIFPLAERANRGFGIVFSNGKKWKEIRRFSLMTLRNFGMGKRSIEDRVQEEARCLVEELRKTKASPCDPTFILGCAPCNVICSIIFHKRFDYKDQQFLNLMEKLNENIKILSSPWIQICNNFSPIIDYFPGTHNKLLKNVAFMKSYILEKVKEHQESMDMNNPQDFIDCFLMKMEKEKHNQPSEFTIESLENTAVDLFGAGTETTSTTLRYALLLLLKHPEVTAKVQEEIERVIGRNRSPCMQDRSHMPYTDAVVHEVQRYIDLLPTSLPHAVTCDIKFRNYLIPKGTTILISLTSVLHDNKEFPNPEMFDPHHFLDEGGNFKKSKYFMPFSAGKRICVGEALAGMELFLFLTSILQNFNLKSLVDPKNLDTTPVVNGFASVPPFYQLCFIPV

Cytochrome P450 1A2 [6] = biological target: T1, Cytochrome P450 1A2; remark: listed apart in the source
INS1 = experiment: caspase-3/7 inhibition in cytokine-treated INS-1E, dose response, beta-cell apoptosis inhibitor project, cell-based, caspase luminescence, dry powder (AID 488848); assay type: functional; details: Rattus norvegicus
NIH3T3 = experiment: mammalian cell toxicity, NIH-3T3 fibroblasts, dose response, cytotoxicity control for reversing antifungal drug resistance, Alamar Blue, dry powder, set 3 (AID 488933); assay type: functional, cell-based; details: Mus musculus
[7] = biological target: T3, Dual specificity protein phosphatase 3 (Homo sapiens, UniProt P51452); experiment: SAR VHR1 Fluorescent Assay for In Vitro dose response studies. [Related pubchem assays (depositor defined):AID1654, AID1661, AID1878, AID1992, AID2004, AID2070, AID2085]; assay type: functional
T3 sequence (P51452 whole entry): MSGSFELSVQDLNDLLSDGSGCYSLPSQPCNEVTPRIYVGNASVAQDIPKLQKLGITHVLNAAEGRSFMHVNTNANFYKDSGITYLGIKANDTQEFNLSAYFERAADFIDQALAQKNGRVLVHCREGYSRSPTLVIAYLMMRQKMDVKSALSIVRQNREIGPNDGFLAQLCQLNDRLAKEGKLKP

[8] = biological target: Dual specificity protein phosphatase 6 (Rattus norvegicus, UniProt Q64346); assay type: functional;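 further: confirmatory in vitro dose-response testing of MKP-3 inhibition; recombinant His-tagged MKP-3 made in E. coli BL21 with OMFP substrate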
Chain of Dual specificity protein phosphatase 6 (Q64346 whole entry): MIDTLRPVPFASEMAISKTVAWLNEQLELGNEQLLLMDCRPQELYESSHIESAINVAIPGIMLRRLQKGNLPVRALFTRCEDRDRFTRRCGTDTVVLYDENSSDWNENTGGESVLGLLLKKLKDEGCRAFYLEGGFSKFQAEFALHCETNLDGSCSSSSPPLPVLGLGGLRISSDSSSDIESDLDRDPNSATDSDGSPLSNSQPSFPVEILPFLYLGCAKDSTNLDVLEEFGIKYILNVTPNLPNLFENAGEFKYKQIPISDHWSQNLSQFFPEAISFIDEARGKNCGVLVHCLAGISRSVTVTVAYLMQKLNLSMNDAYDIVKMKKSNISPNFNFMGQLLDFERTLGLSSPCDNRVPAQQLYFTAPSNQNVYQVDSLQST

[9] = biological target: Tyrosine-protein phosphatase non-receptor type 7 (Homo sapiens, UniProt P35236); experiment: redox-dependent HePTP inhibition, mechanism study, biochemical, fluorescence (AID 2068); assay type: functional
Chain of Tyrosine-protein phosphatase non-receptor type 7 (P35236 whole entry): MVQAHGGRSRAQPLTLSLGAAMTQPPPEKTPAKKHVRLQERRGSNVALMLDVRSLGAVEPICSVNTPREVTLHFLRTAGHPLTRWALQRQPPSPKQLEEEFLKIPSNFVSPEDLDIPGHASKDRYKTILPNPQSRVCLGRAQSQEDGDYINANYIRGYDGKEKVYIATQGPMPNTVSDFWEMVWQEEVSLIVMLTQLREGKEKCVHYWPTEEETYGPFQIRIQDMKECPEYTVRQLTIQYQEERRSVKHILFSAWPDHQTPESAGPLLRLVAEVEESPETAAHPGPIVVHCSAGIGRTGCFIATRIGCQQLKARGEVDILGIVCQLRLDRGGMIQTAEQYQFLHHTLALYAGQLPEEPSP

[10] = biological target: T3, Dual specificity protein phosphatase 3; experiment: MOA VHR1 Fluorescent secondary assay for identification of redox-state modulating compounds. [Related pubchem assays (depositor defined):AID1654, AID1661, AID1878, AID1957]
[11] = biological target: T4, Nuclear receptor subfamily 0 group B member 1 (Homo sapiens, UniProt P51843); experiment: Luminescence-based cell-based high throughput dose response assay for inhibitors of the orphan nuclear receptor subfamily 0, group B, member 1 (DAX1; NR0B1). [Related pubchem assays (depositor defined):AID504766, AID504790]; assay type: functional
T4 sequence (P51843 whole entry): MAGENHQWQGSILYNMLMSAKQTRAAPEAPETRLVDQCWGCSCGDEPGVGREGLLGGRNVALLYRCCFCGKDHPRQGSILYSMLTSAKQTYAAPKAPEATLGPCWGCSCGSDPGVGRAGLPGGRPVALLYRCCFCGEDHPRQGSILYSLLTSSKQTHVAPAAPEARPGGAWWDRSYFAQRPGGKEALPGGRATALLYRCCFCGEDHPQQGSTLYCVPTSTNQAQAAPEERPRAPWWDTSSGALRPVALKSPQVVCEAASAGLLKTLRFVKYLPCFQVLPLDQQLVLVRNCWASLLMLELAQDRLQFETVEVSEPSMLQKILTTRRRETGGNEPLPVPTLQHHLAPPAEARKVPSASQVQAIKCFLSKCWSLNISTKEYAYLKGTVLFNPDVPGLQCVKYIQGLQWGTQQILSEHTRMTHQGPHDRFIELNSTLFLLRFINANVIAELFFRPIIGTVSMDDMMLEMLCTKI

HEK293 = experiment: cells; assay type: functional, cell-based; details: Homo sapiens
CAAX prenyl protease 2 = biological target: T5, CAAX prenyl protease 2 (Saccharomyces cerevisiae S288c, UniProt Q03530); assay type: biochemical
T5 sequence (Q03530 whole entry): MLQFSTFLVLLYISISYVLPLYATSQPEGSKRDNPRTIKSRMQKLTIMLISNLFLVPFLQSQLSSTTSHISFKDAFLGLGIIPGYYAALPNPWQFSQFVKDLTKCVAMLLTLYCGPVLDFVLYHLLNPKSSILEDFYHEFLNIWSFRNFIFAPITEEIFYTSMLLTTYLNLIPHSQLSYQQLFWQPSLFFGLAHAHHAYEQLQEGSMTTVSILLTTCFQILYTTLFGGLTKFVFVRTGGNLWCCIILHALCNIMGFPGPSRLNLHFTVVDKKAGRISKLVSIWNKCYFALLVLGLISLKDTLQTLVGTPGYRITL

[12] = Luminescence Cell-Based Secondary HTS screen to identify cytotoxic compounds of NIH3T3 cells. [Related pubchem assays: 1885, 1968 ]; assay type: functional
[13] = inhibitors of Trypanosoma cruzi host-cell infection, confirmation, beta-gal luminescence, NIH3T3 host cells (AID 2630); assay type: functional, cell-based; details: Mus musculus
[14] = Luminescence Cell-Based/Microorganism Confirmation at Dose of Inhibitors of Trypanosoma cruzi Infection. [Related pubchem assays: 1885, 1968 ]; assay type: functional
[15] = growth induction of Burl-1 ts yeast mutant, dose response, counter-screen for SUMOylation pathway inhibitor project, whole organism, S. cerevisiae, luminescence (AID 463199); assay type: functional
Jurkat = experiment: antigen receptor-induced NF-kB inhibitors, dose response, Jurkat, luciferase reporter, luminescence, B- and T-cell (AID 489004); assay type: functional, cell-based; details: Homo sapiens;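 further: NF-kB luciferase reporter Jurkat cells stimulated with PMA plus ionomycin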
[16] = luciferase reporter signal reduction – luminescence, H4-C neuroglioblastoma cells, dose response (AID 2458); assay type: functional, cell-based;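 further: H4 neuroglioblastoma cells stably carrying a luciferase reporter gene fusion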
[17] = inhibitors of SNCA 5'UTR-driven translation, confirmation, luminescence, H4 neuroglioblastoma cells, dose confirmation (AID 2454); assay type: functional, cell-based;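 further: H4 neuroglioblastoma cells carrying an alpha-synuclein 5'UTR luciferase reporter; potency for inhibition of the luciferase signal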
cells = assay type: functional, cell-based
[18] = inhibitors of firefly luciferase expression or activity, dose response, H4 neuroglioma cells, luminescence (AID 1990); assay type: functional, cell-based
[19] = cytotoxicity in HEK-293T NF-kB-Luc cells, dose response, cytotoxicity control for B/T-cell NF-kB inhibitor project, cell-based, uHTS hits (AID 489019); assay type: functional;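 further: IC50 reflects cytotoxicity as loss of cell viability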
[20] = inhibitors of SNCA 5'UTR-driven reporter translation, confirmation, H4 neuroglioma cells, luminescence (AID 1988); assay type: functional, cell-based
[21] = Luminescence Cell-Based Dose Response HTS to Identify Inhibitors of 5'UTR Stem-Loop Driven Prion Protein mRNA Translation in H4 Neuroglioblastoma Cells. [Related pubchem assays: 1827 (Project Summary), 1813 (Primary HTS)]; assay type: functional

## CN1CCC2(CC1)C1CN(C)CC=C1C(C#N)=C(N)C2(C#N)C#N (stereo not drawn)
Troponin, cardiac muscle
  EC50: 9 µM (active)
Keap1/Nrf2
  AC50: > 52 µM (inactive)
Cytochrome P450 2D6
  AC50: 14.1 µM (inconclusive)
Cytochrome P450 1A2 [1]
  AC50: 20 µM (inconclusive)

## O=c1c2ccccc2nc(/C=C/c2ccc(Cl)cc2)n1Cc1ccccc1
Hexokinase-1
  IC50: > 80 µM (inactive)
Hexokinase HKDC1
  IC50: > 80 µM (inactive)

## COc1cccc(C2CC(c3ccc(NS(C)(=O)=O)cc3)=NN2C(=O)c2ccccc2)c1OC (stereo not drawn)
[2]
  EC50: 1.17 µM (active)
[3]
  EC50: > 180 µM (inactive)
[4]
  EC50: > 150 µM (inactive)
[5]
  EC50: > 150 µM (inactive)

## CC(=O)N1CCC2(CC1)CN(c1ccncc1)C2
Cytochrome P450 2C9
  AC50: inconclusive
Cytochrome P450 1A2 [6]
  AC50: inconclusive

## COc1ccc(S(=O)(=O)N(C)C[C@@H]2Oc3c(NC(=O)Nc4cccc5c4CCCC5)cccc3C(=O)N([C@@H](C)CO)C[C@H]2C)cc1
INS1
  AC50: 52.3 µM (active)

## O=C(c1ccccc1)N1CCN(c2ccccn2)CC1
NIH3T3
  AC50: 184 µM (active)

## CCOC(=O)C1=C(c2ccccc2)N=c2sc(=Cc3cc(OC)c(OC)c(OC)c3)c(=O)n2C1c1cccs1 (stereo not drawn)
[7]
  IC50: > 50 µM (inactive)
[8]
  IC50: > 50 µM (inactive)
[9]
  IC50: > 50 µM (inactive)
[10]
  IC50: > 50 µM (inactive)

## O=C(Nc1ccc2c(c1)CCC2)c1ccccc1Br
[11]
  IC50: > 67.6 µM (inactive)
HEK293
  IC50: > 67.6 µM (inactive)
CAAX prenyl protease 2
  AC50: 8.42 µM (active)

## CC1CC(C)CN(CCOCCSc2ccccc2)C1 (stereo not drawn)
[12]
  EC50: > 195 µM (not active)
[13]
  EC50: 98 nM (active)
[14]
  EC50: 98 nM (active)

## Cc1cccc(N2C(=O)/C(=C/c3cccnc3)SC2=S)c1
[15]
  AC50: 51.7 µM (active)

## Cc1nn(C(C)(C)C)c(C)c1/C=N/OC(=O)Nc1ccc(Cl)cc1
Jurkat
  IC50: < 160 nM (active)
[16]
  EC50: 59 nM (active)
[17]
  EC50: 37 nM (active)
cells
  EC50: 75 nM (active)
[18]
  EC50: < 100 nM (active)
[19]
  IC50: > 80 µM (inactive)
[20]
  EC50: < 100 nM (active)
[21]
  EC50: < 100 nM (active)
